Experimental data: patent US5459142A, “Pyrazinyl and piperazinyl substituted pyrazine compounds” (Otsuka Pharmaceutical Co., Ltd., priority 1991, dated 1995)
Converted amounts (≈) assume the structure as drawn.

What was measured:
[1] = test system: superoxide radicals (O2^-) released from peritoneal macrophage cells of guinea pig; experiment: Inhibitory effect against superoxide radicals released from peritoneal macrophage cells of guinea pig by stimulation (FMLP), cytochrome C reduction; assay type: cell-based; conditions: Cavia porcellus, Peritoneal macrophage cell; guinea pig peritoneal macrophages 2×10^6 cells/ml; FMLP 10^-7 M; 37° C.; OD550; read-out: IC50 (superoxide radical release)
Protocol: Inhibitory effect against superoxide radicals released from the peritoneal macrophage cells of guinea pig by stimulation:
Mineral oil (15 ml) was intraperitoneally administered to a guinea pig, then 96 hours after the administration, the peritoneal macrophage cells were sampled.
Superoxide radicals (O2^-) were determined by means of reduction of cytochrome C method according to the procedure described in an article written by T. Matsumoto, K. Takeshige and S. Minakami: Biochemical and Biophysical Research Communications, Vol. 88, No. 3, pp. 974-979, (1979).
The peritoneal macrophage cells were added to make the final concentration of 2×10^6 cells/ml into ml of 80 μM-cytochrome C solution, and the test compound of pyrazine derivative of the present invention was added thereto to make the test group sample. On the other hand, water was added in place of the test compound of the present invention to make the control group sample. Each of the test group sample and the control group sample was subjected to pre-incubation at 37° C. for 1 minute.
As to the stimulating agent for releasing superoxide radicals (O2^-), FMLP (formylmethionyl leucyl phenylalanine) was added to make the final concentration thereof to 10^-7 M, to each of the test group sample and the control group sample. Then both samples were subjected to additional reaction by incubation for 1 minute.
Difference of the optical absorbances measured at 550 nm (OD550) of both test group and control group samples were determined, and the 50% inhibitory concentration (IC50) was obtained by calculating as the ratio of OD550 of the test group sample to that of the control group sample.

[2] = test system: releasing of hydrogen peroxide (H2O2) from the neutrocytes of rat abdominal cavity; experiment: Inhibitory effect against the releasing of hydrogen peroxide (H2O2) from the neutrocytes of rat abdominal cavity; assay type: cell-based, SD-strain rat; conditions: rat neutrocytes 10^6 cells/ml; FMLP 2×10^-6 M; 37° C., 1 hour; OD510
Protocol: Inhibitory effect against the releasing of hydrogen peroxide (H2 O2) from the neutrocytes of rat abdominal cavity
1) 1%-Casein solution was administered to the adbominal cavity of a SD-strain rat, then 16 hours after the administration, the neutrocytes were obtained by washing the abdominal cavity. Thus obtained neutrocytes were washed with Hank's solution.
2) The formulation of the reaction mixture(*) was as follows: […]
______________________________________
Rat neutrocytes 10^6 cells/ml
Text compound was added to the reaction mixture, then the whole mixture was incubated at 37° C. for 1 hour.
3) Next, the reacted mixture was subjected to centrifugal separation at 2,000 rpm for 10 minutes, then ml of the supernatant liquor was taken as a sample and microliters of 1N-NaOH solution was added thereto.
4) The optical absorbance at 510 nm (OD510) was determined by means of using a spectrophotometer. The 50% inhibitory concentration was obtained by calculating as the ratio of OD510 of the test group sample to that of the control group sample.

[3] = test system: releasing of lysosome from the neutrocytes of rat; experiment: Inhibitory effect against the releasing of lysosome from the neutrocytes of rat; assay type: cell-based; conditions: rat neutrocytes 5×10^5 cells/ml; 10^-6 M FMLP and 5 μg/ml cytochalasin B; OD540
Protocol: Inhibitory effect against the releasing of lysosome from the neutrocytes of rat
The neutrocytes of rat were sampled from the abdominal cavity of the rat 16 hours after the administration of 10 ml of 1%-casein solution (physiological saline solution).
Reaction of the releasing of lysosome from the neutrocytes of rat was determined by means of the method as described in an article written by T. Matsumoto, K. Takeshige and S. Minakami: Biochemical and Biophysical Research Communications, Vol. 88, No. 3, pp. 974-979, (1979).
The neutrocytes being sampled were added to Hank's solution so as to make the concentration thereof as 5×10^5 cells/ml, and the test compound of pyrazine derivative of the present invention was added thereto to make the test group sample. On the other hand, water as added in place of the pyrazine derivative of the present invention to make the control group sample. Each of the test group sample and the control group sample was subjected to pre-incubation at 37° C. for 1 minute.
As to the stimulating agents, 10^-6 M of FMLP (formylmethionyl leucyl phenylalanine) and 5 μg/ml of cytochalasin B were added to the solution. […] After the reaction, 1N-NaOH solution was added to the reaction mixture so as to make the pH value thereof to pH 8 to 9, and the optical absorbance of both test group samples and control group samples were determined at 540 nm (OD540). […]

| IC50 [2] [µg/mL] | IC50 [3] [µg/mL] | Structure (SMILES) | IC50 [1] [µg/mL] |
| --- | --- | --- | --- |
|  |  | COc1cccc(NC(=O)c2[nH]c(=O)c(CC(C)C)[n+]([O-])c2OC)c1 [Example 2] | 40 (≈ 115 µM) |
|  |  | COc1c(C(=O)Nc2cccc(SC)c2)[nH]c(=O)c(CC(C)C)[n+]1[O-] [Example 3] | 20 (≈ 55 µM) |
|  |  | COc1c(C(=O)Nc2ccc3c(c2)OCO3)[nH]c(=O)c(CC(C)C)[n+]1[O-] [Example 4] | 56 (≈ 155 µM) |
| 60 (≈ 135 µM) |  | COc1c(C(=O)Nc2cc(C(C)(C)C)c(O)c(C(C)(C)C)c2)[nH]c(=O)c(CC(C)C)[n+]1[O-] [Example 5] | 17 (≈ 38.2 µM) |
|  | 20 | COc1c(C(=O)Nc2ccccc2-c2ccccc2)[nH]c(=O)c(CC(C)C)[n+]1[O-] [Example 6] | 3 (≈ 7.62 µM) |
|  | 16 | COc1c(C(=O)Nc2nc3ccccc3s2)[nH]c(=O)c(CC(C)C)[n+]1[O-] [Example 7] | 18 (≈ 48.1 µM) |
|  |  | COc1ccc2nc(NC(=O)c3[nH]c(=O)c(CC(C)C)[n+]([O-])c3OC)sc2c1 [Example 8] | 10 (≈ 24.7 µM) |
|  |  | COc1cccc(CNC(=O)c2[nH]c(=O)c(CC(C)C)[n+]([O-])c2OC)c1 [Test compound 1, 3-Isobutyl-5-methoxy-6-[N-(3-methoxybenzyl)]-carbamoyl-1,2-dihydropyrazin-2-one 4-oxide] | 30 (≈ 83 µM) |
